TGI and GI50 data for seven molecules are collected here from PubChem BioAssay (NCI).

Among the test systems are LOX IMVI melanoma; UACC-62 melanoma; HCT-15 colon; UACC-257 melanoma; OVCAR-4 ovarian; NCI-H23 lung; OVCAR-5 ovarian; SF-539 CNS; UO-31 renal; EKVX NSCLC.
Holding throughout (experiment): growth of human tumour cells (NCI), 48 h

Values after ≈ are worked out from the molar mass of the structure shown.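 96-well plates; 48 h exposure; 5 concentrations. Endpoints by linear interpolation between flanking doses. Not reached: highest tested concentration assigned. Abbreviation: GI50, concentration required for 50% inhibition of growth. Definition used: TGI = concentration required for complete inhibition of growth.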 A value given as a limit tells only on which side of the number the result lay.

On to `CCOC(=O)c1csc(NC(=O)C(C)N2CCCC2)n1` (stereo unspecified), for which the TGI with LOX IMVI melanoma, in the experiment with UACC-62 melanoma, with HCT-15 colon, with UACC-257 melanoma, with OVCAR-4 ovarian and in the experiment on NCI-H23 lung was above 100 µM in each case. For the same molecule, the TGI with OVCAR-5 ovarian, with SF-539 CNS and with UO-31 renal was above 100 µM in each case.
On to `O=C1NN(C2=NNC3(C(=O)N2)c2ccccc2-c2ccccc23)C(c2ccccc2)=N/C1=C/c1ccc(Cl)cc1`, for which the GI50 is 56.1 µg/mL (≈ 103 µM) in the experiment on LOX IMVI melanoma; 29.8 µg/mL (≈ 54.7 µM) in the experiment on UACC-62 melanoma; 54.1 µg/mL (≈ 99.3 µM) in the experiment on HCT-15 colon; 68 µg/mL (≈ 125 µM) in the experiment on UACC-257 melanoma; 62.8 µg/mL (≈ 115 µM) with OVCAR-4 ovarian; 34.9 µg/mL (≈ 64.1 µM) in the experiment with NCI-H23 lung. Besides, the GI50 was 132 µg/mL (≈ 242 µM) with OVCAR-5 ovarian, 50.9 µg/mL (≈ 93.4 µM) with SF-539 CNS, 48 µg/mL (≈ 88 µM) in the experiment on UO-31 renal and 38.7 µg/mL (≈ 71 µM) in the experiment on EKVX NSCLC. The TGI is above 150 µg/mL in the experiment on LOX IMVI melanoma; 65.6 µg/mL in the experiment on UACC-62 melanoma; above 150 µg/mL with HCT-15 colon; above 150 µg/mL in the experiment on UACC-257 melanoma; above 150 µg/mL in the experiment with OVCAR-4 ovarian; above 150 µg/mL in the experiment with NCI-H23 lung. Moreover, the TGI in the experiment on OVCAR-5 ovarian was above 150 µg/mL; in the experiment on SF-539 CNS, above 150 µg/mL; in the experiment with UO-31 renal, above 150 µg/mL; in the experiment with EKVX NSCLC, 108 µg/mL.
In the case of `CC(=O)NNc1nc(C)c(C(=O)NNC(=O)C(=O)Nc2ccc([N+](=O)[O-])cc2[N+](=O)[O-])s1`, the TGI in the experiment with LOX IMVI melanoma, in the experiment on UACC-62 melanoma, in the experiment with HCT-15 colon, with UACC-257 melanoma, in the experiment with OVCAR-4 ovarian and in the experiment on NCI-H23 lung was above 100 µM each time. Besides, the TGI in the experiment with OVCAR-5 ovarian, in the experiment with SF-539 CNS, in the experiment on UO-31 renal and with EKVX NSCLC was above 100 µM throughout.
On to `COC(=O)C(Cc1cn(C(C)n2cc(CC(NC(C)=O)C(=O)OC)c3ccccc32)c2ccccc12)NC(C)=O` (stereo unspecified), for which the TGI in the experiment with UACC-62 melanoma, in the experiment with HCT-15 colon, with UACC-257 melanoma, with OVCAR-4 ovarian, in the experiment with NCI-H23 lung and in the experiment on OVCAR-5 ovarian was above 100 µM throughout. Besides, the TGI in the experiment with UO-31 renal and in the experiment with EKVX NSCLC was above 100 µM in each case.
Regarding `CO/N=C1\CC(NC(=O)C(F)(F)F)c2ccsc21` (stereo unspecified), the TGI in the experiment with LOX IMVI melanoma, with UACC-62 melanoma, in the experiment with HCT-15 colon, in the experiment on UACC-257 melanoma, in the experiment on OVCAR-4 ovarian and with NCI-H23 lung was above 100 µM each time. Besides, the TGI in the experiment on OVCAR-5 ovarian, in the experiment with SF-539 CNS, in the experiment on UO-31 renal and in the experiment with EKVX NSCLC was above 100 µM each time.
In the case of `COC(=O)CC(=O)OSc1ccccc1`, the TGI in the experiment on LOX IMVI melanoma was 26.9 µM; in the experiment on UACC-62 melanoma, 29.5 µM; in the experiment with UACC-257 melanoma it was 87.7 µM; with OVCAR-4 ovarian, above 100 µM; in the experiment on NCI-H23 lung it was 82.9 µM; with OVCAR-5 ovarian, above 100 µM. Moreover, the TGI with SF-539 CNS was 25.5 µM; with UO-31 renal, 24.7 µM; in the experiment on EKVX NSCLC, 89.2 µM.
On to `O=c1oc2ccccc2c(O)c1Cc1ccc(Cc2c(O)c3ccccc3oc2=O)cc1`, for which the TGI in the experiment with LOX IMVI melanoma, in the experiment with UACC-62 melanoma, in the experiment on HCT-15 colon, with UACC-257 melanoma, in the experiment with OVCAR-4 ovarian and in the experiment with NCI-H23 lung was above 100 µM in each case. The TGI in the experiment with OVCAR-5 ovarian, in the experiment with SF-539 CNS, in the experiment on UO-31 renal and in the experiment with EKVX NSCLC was above 100 µM throughout.
